This passage reports IC50 results from US20050282818A1, “Ubiquitin ligase inhibitors” (Rigel Pharmaceuticals, Inc., priority 2004, published 2005).

Structures are written as SMILES. Where two headings read alike, the source gives them in different places.

The test system of one assay is A549 cells. Briefly: Cell proliferation PAD assay, A549. Type of assay: cell-based. The following applies: Homo sapiens, 48 hours. A digest of the protocol: (§1)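 Plate 2,000 cells per well, then add compound after 24 h as duplicate 6.3-fold dilutions, with 10 mM master stock diluted 500-fold on transfer. Grow 48 h at 37 °C in 5% CO2, fix with formamide, stain nuclei with DAPI, and count cells by imaging.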

For the next assay, the target named is T1, TRAF6/Uev1A/Ubc13 (Homo sapiens, UniProt Q9Y4K3).
T1 sequence (Q9Y4K3 1-522): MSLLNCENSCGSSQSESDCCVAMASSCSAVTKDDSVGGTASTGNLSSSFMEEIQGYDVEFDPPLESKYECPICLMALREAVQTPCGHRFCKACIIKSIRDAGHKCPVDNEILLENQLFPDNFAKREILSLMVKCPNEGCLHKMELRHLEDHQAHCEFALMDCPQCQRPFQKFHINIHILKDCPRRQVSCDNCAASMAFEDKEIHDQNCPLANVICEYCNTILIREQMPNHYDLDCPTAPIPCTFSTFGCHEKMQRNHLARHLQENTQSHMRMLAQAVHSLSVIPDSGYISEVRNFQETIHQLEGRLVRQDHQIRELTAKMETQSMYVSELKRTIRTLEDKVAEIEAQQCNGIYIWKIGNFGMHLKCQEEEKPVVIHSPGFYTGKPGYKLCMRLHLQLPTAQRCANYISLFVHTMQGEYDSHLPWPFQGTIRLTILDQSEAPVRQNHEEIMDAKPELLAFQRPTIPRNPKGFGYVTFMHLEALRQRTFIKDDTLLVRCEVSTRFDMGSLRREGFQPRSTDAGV
Briefly: TRAF6/Uev1A/Ubc13 plate-based ubiquitin ligase assay. Type of assay: biochemical. In a few lines: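 Ligase activity was read as luminescence from anti-Flag/HRP detection of Flag-ubiquitin bound to casein-blocked Ni-plates alongside His-ubiquitin after a 1 h room-temperature reaction. Buffer: 62.5 mM Tris pH 7.5, 6.25 mM MgCl2, 1.0 mM DTT, 2 μM ATP; E1, Uev1a/Ubc13 and TRAF6 added last to start. IC50s derived across compound concentrations.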

The subject of a further assay is H1299 cells. Briefly: Cell proliferation PAD assay, H1299. Type of assay: cell-based. The following applies: Homo sapiens, 48 hours. In a few lines: as §1
Setting [1] is: NCI-H1299, 3pt, read-out: H1299 3pt.
Setting [2] is: NCI-H1299, 6pt, read-out: H1299 6pt.

With `O=S(=O)(Nc1ccc(F)c(F)c1)c1ccc(Cl)c2nonc12` [compound 262, 7-chloro-N-(3,4-difluorophenyl)-2,1,3-benzoxadiazole-4-sulfonamide], the IC50 is 1 to 20 µM with A549 cells (3pt, read-out: A549 3pt); at least 20 µM against TRAF6/Uev1A/Ubc13; 1 to 20 µM in the assay on H1299 cells (setting [1]).
Consider `N#Cc1ccc(N2CCN(S(=O)(=O)c3c(Cl)ccc4nonc34)CC2)nc1` [compound 209, 6-{4-[(5-chloro-2,1,3-benzoxadiazol-4-yl)sulfonyl]piperazin-1-yl}nicotinonitrile], for which the IC50 in the assay on A549 cells (3pt, read-out: A549 3pt) was 1 to 20 µM; in the assay on A549 cells (6pt, read-out: A549 6pt), under 1 µM; on TRAF6/Uev1A/Ubc13, 1 to 20 µM; in the assay on H1299 cells (setting [1]), 1 to 20 µM; in the assay with H1299 cells (setting [2]) it was under 1 µM.
For the molecule `O=S(=O)(c1ccc(Cl)c2nonc12)N1CCN(c2ncccn2)CC1` [compound 184, 4-chloro-7-[(4-pyrimidin-2-ylpiperazin-1-yl)sulfonyl]-2,1,3-benzoxadiazole], the IC50 in the assay on A549 cells (3pt, read-out: A549 3pt) was 1 to 20 µM; with A549 cells (6pt, read-out: A549 6pt), at least 20 µM; at TRAF6/Uev1A/Ubc13, at least 20 µM; in the assay with H1299 cells (setting [1]), 1 to 20 µM; in the assay with H1299 cells (setting [2]) it was at least 20 µM.
With `N#Cc1ccc(N2CCN(c3ccc([N+](=O)[O-])c4nonc34)CC2)nc1` [compound 121, 6-[4-(7-nitro-2,1,3-benzoxadiazol-4-yl)piperazin-1-yl]nicotinonitrile], the IC50 in the assay with A549 cells (3pt, read-out: A549 3pt) was at least 20 µM; against TRAF6/Uev1A/Ubc13 it was 1 to 20 µM; in the assay on H1299 cells (setting [1]) it was at least 20 µM.
Consider `COc1cc(NS(=O)(=O)c2c(Cl)ccc3nonc23)c(OC)cc1Cl` [compound 343, 5-chloro-N-(4-chloro-2,5-dimethoxyphenyl)-2,1,3-benzoxadiazole-4-sulfonamide], for which the IC50 was 1 to 20 µM with A549 cells (6pt, read-out: A549 6pt); at least 20 µM against TRAF6/Uev1A/Ubc13; 1 to 20 µM in the assay on H1299 cells (setting [2]).
In the case of `Cc1cc(C)cc(-c2cccc3nonc23)c1` [compound 285, 4-(3,5-Dimethylphenyl)-2,1,3-benzoxadiazole], the IC50 in the assay with A549 cells (3pt, read-out: A549 3pt) is at least 20 µM; in the assay with A549 cells (6pt, read-out: A549 6pt), at least 20 µM; at TRAF6/Uev1A/Ubc13 it was at least 20 µM; with H1299 cells (setting [1]) it was at least 20 µM.
As for `CC1CC(C)CN(S(=O)(=O)c2ccc(Cl)c3nonc23)C1` (stereo not shown) [compound 192, 4-chloro-7-[(3,5-dimethylpiperidin-1-yl)sulfonyl]-2,1,3-benzoxadiazole], the IC50 in the assay on A549 cells (3pt, read-out: A549 3pt) was 1 to 20 µM; with A549 cells (6pt, read-out: A549 6pt), at least 20 µM; against TRAF6/Uev1A/Ubc13 it was at least 20 µM; with H1299 cells (setting [1]) it was 1 to 20 µM; with H1299 cells (setting [2]), at least 20 µM.
As to `COC(=O)c1ccc(NS(=O)(=O)c2ccc(F)c3nonc23)cc1` [compound 167, methyl 4-{[(7-fluoro-2,1,3-benzoxadiazol-4-yl)sulfonyl]amino}benzoate], the IC50 in the assay on A549 cells (3pt, read-out: A549 3pt) was 1 to 20 µM; in the assay with A549 cells (6pt, read-out: A549 6pt) it was at least 20 µM; at TRAF6/Uev1A/Ubc13 it was at least 20 µM; in the assay with H1299 cells (setting [1]), 1 to 20 µM; with H1299 cells (setting [2]), at least 20 µM.
For the molecule `O=[N+]([O-])c1ccc(SCCO)c2nonc12` [compound 150, 2-[(7-nitro-2,1,3-benzoxadiazol-4-yl)thio]ethanol], the IC50 in the assay on A549 cells (3pt, read-out: A549 3pt) was under 1 µM; with A549 cells (6pt, read-out: A549 6pt), under 1 µM; against TRAF6/Uev1A/Ubc13 it was at least 20 µM; in the assay with H1299 cells (setting [1]), 1 to 20 µM; in the assay on H1299 cells (setting [2]), under 1 µM.
As for `COC(=O)c1ccc(NS(=O)(=O)c2c(Cl)ccc3nonc23)cc1` [compound 178, methyl 4-{[(5-chloro-2,1,3-benzoxadiazol-4-yl)sulfonyl]amino}benzoate], the IC50 in the assay with A549 cells (3pt, read-out: A549 3pt) is 1 to 20 µM; in the assay with A549 cells (6pt, read-out: A549 6pt), at least 20 µM; against TRAF6/Uev1A/Ubc13, at least 20 µM; in the assay with H1299 cells (setting [1]), 1 to 20 µM; in the assay on H1299 cells (setting [2]) it was under 1 µM.
Regarding `O=[N+]([O-])c1ccc(N2CCN(c3ncccc3C(F)(F)F)CC2)c2nonc12` [compound 148, 4-nitro-7-{4-[3-(trifluoromethyl)pyridin-2-yl]piperazin-1-yl}-2,1,3-benzoxadiazole], the IC50 is at least 20 µM in the assay with A549 cells (3pt, read-out: A549 3pt); 1 to 20 µM against TRAF6/Uev1A/Ubc13; at least 20 µM in the assay with H1299 cells (setting [1]).
